In article PMC12316891, “A bottom-up approach to find lead compounds in expansive chemical spaces” (Communications Chemistry, 2025):

Legend:
His6-BRD4 (BD1) = target: T1, His6-BRD4 (BD1) (Homo sapiens, UniProt O60885); test: Surface plasmon resonance (SPR) single-dose screening; type: binding; parameters: key to SPR RESULT: Positive: compounds were considered as SPR hits also when their average signal was further than two standard deviations apart from the average signal of the blank samples (1% DMSO); settings: for RUs at [10 µM]: SPR, compound 10 µM, 1% DMSO, n = 2, decimal comma; for SPR RESULT: single dose 10 µM, n = 2
T1 construct: A pET28 plasmid containing residues 44–168 of BRD4 (BD1), a 6xHis tag, a TEV protease cleavage site; made in house; host or cells: E. coli Rosetta (D3)

BRD4 (BD1) [1] = target: T2, BRD4 (BD1) (Homo sapiens, UniProt O60885); test: Competitive HTRF TR-FRET binding assay (displacement of acetylated histone H4 peptide); settings: for TR-FRET IC50 (nM) / IC50: 16-point titration 0.1 nM to 10 µM, n = 2, Negative = curve could not be fitted to a sigmoidal curve; for IC50: read-out: TR-FRET IC50; for IC50 by HTRF TR-FRET, range in words: potency range or dose-response behaviour
T2 construct: A pET28 plasmid containing residues 44–168 of BRD4 (BD1), a 6xHis tag, a TEV protease cleavage site; 6xHis (N, cleaved yes); made in house; host or cells: E. coli Rosetta (D3)
Procedure: To further quantitatively characterize the DSF/SPR hits compounds obtained in the single-dose screenings, we selected HTRF TR-FRET. Specifically, we employed a competitive HTRF TR-FRET experiment to measure the compound’s capacity to displace an acetylated peptide from the binding site of BRD4 (BD1). For each molecule, a 16-point concentration curve was titrated against the peptide-BRD (BD1) complex and incubated for 1.5 h. A compound was considered a positive binder if we could fit its titration curve to a sigmoidal curve to determine its IC50. […] Compound screening was carried out in 384-well, white, round-bottom, small-volume plates (CORNING) in a final volume of 20 µL of 50 mM HEPES (pH 7.4), 50 mM NaCl, 400 mM KF, 0.5 mM CHAPS, and 0.05% BSA. […] Then, the labeled anti-His6-XL665 antibody (CisBio) (10 nM) was added to the mixture and incubated for 15 min, before the Eu3+ cryptate-conjugated streptavidin (2 nM) (CisBio) was added and incubated for 15 min. All incubations were performed at room temperature. […] Titration of (+)−JQ1 was used as a positive control for each experiment.

BRD4 (BD1) [2] = target: T2, BRD4 (BD1); test: Differential scanning fluorimetry (DSF) single-dose thermal shift screening; type: binding; settings: DSF, compound 10 µM, BRD4 (BD1) 2 µM, n = 3, decimal comma; read-out: ΔTm ºC at [10 µM]

RUs at [10 µM] (His6-BRD4 (BD1)) | SPR RESULT (His6-BRD4 (BD1)) | TR-FRET IC50 (nM) (BRD4 (BD1) [1]) | ΔTm at 10 µM (BRD4 (BD1) [2]) | IC50 (BRD4 (BD1) [1]) | IC50 by HTRF TR-FRET, range in words (BRD4 (BD1) [1]) | Compound
13,51 ± 3,27 RUs | Negative | Negative | 0.7 °C | – | – | COC1(CNC(=O)c2nscc2Br)CN(C(=O)C2CCS(=O)(=O)N2)C1 (stereo not shown) [Compound 63, COC1(CNC(=O)C2=NSC=C2Br)CN(C1)C(=O)C3CCS(=O)(=O)N3]
20,41 ± 1,87 RUs | Positive | – | 0.83 °C | 136 nM | – | COc1cccnc1C(=O)N1CCC2(CC(NC(=O)c3occc3Br)c3ccccc3O2)C1 (stereo not shown) [Compound 66, COC=1C=CC=NC1C(=O)N2CCC3(C2)CC(NC(=O)C=4OC=CC4Br)C=5C=CC=CC5O3]
28,42 ± 2,09 RUs | Positive | – | 0.81 °C | 3.72 nM | low nM | Cc1cc(C)n2c(CNc3ccc(C)c(NC(=O)CN4CCCCC4)c3)cnc2n1 [Compound 67, CC=1C=C(C)N2C(CNC=3C=CC(C)=C(NC(=O)CN4CCCCC4)C3)=CN=C2N1]
21,72 ± 4,06 RUs | Positive | – | 0.65 °C | 123 nM | – | COc1ccc(C=C(CC(=O)Nc2nnc(C)s2)c2nc3ccccc3s2)cc1OC [Compound 70, COC=1C=CC(C=C(CC(=O)NC2=NN=C(C)S2)C3=NC=4C=CC=CC4S3)=CC1OC]
11,01 ± 0,31 RUs | Positive | – | 0.79 °C | 71.4 nM | – | Cc1cc(C)n2nc(NC(=O)NCCOC3(C)CCOCC3)nc2n1 [Compound 71, CC=1C=C(C)N2N=C(NC(=O)NCCOC3(C)CCOCC3)N=C2N1]
19,09 ± 5,61 RUs | Positive | – | 0.51 °C | 92.9 nM | – | Cc1ncc(CNC(=O)NCc2cccc(S(=O)(=O)NC(C)C)c2)c(O)n1 [Compound 72, CC(C)NS(=O)(=O)C=1C=CC=C(CNC(=O)NCC=2C=NC(C)=NC2O)C1]
52,94 ± 6,92 RUs | Positive | – | 0.4 °C | 1370 nM | – | Cc1cc(C)n2nc(NC(=O)N3CCC(CCC(C)(C)C)C3)nc2n1 (stereo not shown) [Compound 74, CC=1C=C(C)N2N=C(NC(=O)N3CCC(CCC(C)(C)C)C3)N=C2N1]
14,74 ± 1,95 RUs | Positive | Negative | 1.2 °C | – | – | Cc1ncc(CNC(=O)c2c(-c3ccccc3)nn3ccccc23)c(O)n1 [Compound 75, CC=1N=CC(CNC(=O)C=2C(=NN3C=CC=CC23)C=4C=CC=CC4)=C(O)N1]
67,27 ± 12,19 RUs | Positive | – | 0.48 °C | 135 nM | – | Cc1cc(C)n2nc(NC(=O)N3CCc4cc(Cl)cc(Cl)c4C3)nc2n1 [Compound 77, CC=1C=C(C)N2N=C(NC(=O)N3CCC=4C=C(Cl)C=C(Cl)C4C3)N=C2N1]
17,5 ± 1,9 RUs | Positive | – | 1.16 °C | 18.1 nM | – | O=C(Nc1cccc(C(=O)N2CCC(Cn3cc(C4(O)CCOCC4)nn3)CC2)c1)c1ccco1 [Compound 84, OC1(CCOCC1)C2=CN(CC3CCN(CC3)C(=O)C=4C=CC=C(NC(=O)C5=CC=CO5)C4)N=N2]
15,1 ± 2,46 RUs | Positive | – | 2.3 °C | 11.1 nM | low nM | COC(=O)c1cc(CNC(=O)C=Cc2cnc(C)[nH]c2=O)ccc1Cl [Compound 87, COC(=O)C=1C=C(CNC(=O)C=CC2=CN=C(C)NC2=O)C=CC1Cl]

Further lines, the compound ahead of its results:

Compound | RUs at [10 µM] (His6-BRD4 (BD1)) | SPR RESULT (His6-BRD4 (BD1)) | TR-FRET IC50 (nM) (BRD4 (BD1) [1]) | ΔTm at 10 µM (BRD4 (BD1) [2]) | IC50 (BRD4 (BD1) [1]) | IC50 by HTRF TR-FRET, range in words (BRD4 (BD1) [1])
Cc1nnc2sc(C(=O)N3CCC4(CCC(NC(=O)Cc5csc(Cl)c5)CC4)CC3)c(N)c2c1C [Compound 60, CC=1N=NC=2SC(C(=O)N3CCC4(CCC(CC4)NC(=O)CC5=CSC(Cl)=C5)CC3)=C(N)C2C1C] | 48,37 ± 15,77 RUs | Positive | Negative | 0.94 °C | – | –
CCCc1c(C(=O)N2CCCC2Cn2cc(-c3cc(C)nc(C)c3)nn2)[nH]c(C)c1C(C)=O (stereo not shown) [Compound 61, CCCC1=C(NC(C)=C1C(=O)C)C(=O)N2CCCC2CN3C=C(N=N3)C=4C=C(C)N=C(C)C4] | 15,14 ± 5,89 RUs | Negative | – | 0.49 °C | 79.4 nM | –
COC1CC(CCC(=O)NC2CC3(CCN(C(=O)c4occc4Br)C3)Oc3ccccc32)C1 (stereo not shown) [Compound 62, COC1CC(CCC(=O)NC2CC3(CCN(C3)C(=O)C=4OC=CC4Br)OC=5C=CC=CC25)C1] | 23,54 ± 4,84 RUs | Positive | Negative | -0.15 °C | – | –
Cc1cc(C)n2nc(CC(=O)NCC(C)(C)Cn3cc(-c4sccc4C)nn3)nc2n1 [Compound 64, CC=1C=CSC1C2=CN(CC(C)(C)CNC(=O)CC=3N=C4N=C(C)C=C(C)N4N3)N=N2] | 25,91 ± 0,65 RUs | Positive | Negative | 0.1 °C | – | –
CNC(=O)C1(C(=O)N[C@@H]2CCCC[C@H]2NC(=O)c2cnsn2)CCC1 [Compound 65, CNC(=O)C1(CCC1)C(=O)N[C@@H]2CCCC[C@H]2NC(=O)C=3C=NSN3] | 7,82 ± 0,92 RUs | Negative | – | 0.32 °C | 28.7 nM | –
CC(=O)c1ccc(N2CCN(C(=O)Nc3nnc(C)s3)CC2)c(F)c1 [Compound 69, CC(=O)C=1C=CC(N2CCN(CC2)C(=O)NC3=NN=C(C)S3)=C(F)C1] | 23,49 ± 1,0 RUs | Positive | Negative | 0.61 °C | – | –
Cc1nnc(NC(=O)NCc2cccc(C(=O)NCC3CCCO3)c2)s1 (stereo not shown) [Compound 73, CC1=NN=C(NC(=O)NCC=2C=CC=C(C2)C(=O)NCC3CCCO3)S1] | 23,59 ± 6,69 RUs | Positive | – | 1.13 °C | 10700 nM | –
Cc1nnc(NC(=O)CCC(=O)N2Cc3ccccc3OC3(CCOC3)C2)s1 (stereo not shown) [Compound 76, CC1=NN=C(NC(=O)CCC(=O)N2CC=3C=CC=CC3OC4(CCOC4)C2)S1] | 25 ± 11,77 RUs | Negative | – | 2.11 °C | 405 nM | –
Cc1cc(C(=O)NCCc2nc3cc(Cl)ccc3[nH]2)n2ncnc2n1 [Compound 78, CC=1C=C(C(=O)NCCC2=NC=3C=C(Cl)C=CC3N2)N4N=CN=C4N1] | 9,01 ± 0,76 RUs | Positive | – | 1.53 °C | 170 nM | –
Cc1nnc(NC(=O)C2CCCN(C(=O)c3ccc(Br)c(F)c3)C2)s1 (stereo not shown) [Compound 79, CC1=NN=C(NC(=O)C2CCCN(C2)C(=O)C=3C=CC(Br)=C(F)C3)S1] | 33,58 ± 5,55 RUs | Positive | Negative | 1.21 °C | – | –
Cc1nnc(NC(=O)CNC(c2ccc(Cl)cc2)c2ccccc2C(C)C)s1 (stereo not shown) [Compound 80, CC(C)C=1C=CC=CC1C(NCC(=O)NC2=NN=C(C)S2)C=3C=CC(Cl)=CC3] | 29,64 ± 5,36 RUs | Positive | – | -0.49 °C | 23.6 nM | –
Cc1nc(=O)c(CCC(=O)NC2CC(O)(Cn3cc(-c4cnn(C)c4C)nn3)C2)c[nH]1 (stereo not shown) [Compound 81, CC1=C(C=NN1C)C2=CN(CC3(O)CC(C3)NC(=O)CCC4=CNC(C)=NC4=O)N=N2] | 11,5 ± 1,85 RUs | Positive | – | -0.15 °C | 26.4 nM | –
CCOc1ccc(-c2cn(C3CC(NC(=O)c4cc(C)nc5ncnn45)C3)nn2)cc1F (stereo not shown) [Compound 82, CCOC=1C=CC(=CC1F)C2=CN(N=N2)C3CC(C3)NC(=O)C4=CC(C)=NC5=NC=NN45] | 38,3 ± 6,87 RUs | Positive | – | -0.24 °C | 29.7 nM | –
Cc1ncc(C(=O)NCCn2cc(Cn3c(C)nc4ccccc43)nn2)c(=O)[nH]1 [Compound 83, CC1=NC=2C=CC=CC2N1CC3=CN(CCNC(=O)C4=CN=C(C)NC4=O)N=N3] | 14,05 ± 12,27 RUs | Negative | – | 0.78 °C | 325 nM | –
Cc1nc(=O)c(CCC(=O)N2CC3(CCCC3)c3ccccc32)c[nH]1 [Compound 85, CC1=NC(=O)C(CCC(=O)N2CC3(CCCC3)C=4C=CC=CC24)=CN1] | 24,26 ± 6,71 RUs | Positive | – | 1.18 °C | 18 nM | –
CN(Cc1cccc(OC(F)F)c1)C(=O)C(=O)NC1CCN(C(=O)c2ccco2)c2ccccc21 (stereo not shown) [Compound 86, CN(CC=1C=CC=C(OC(F)F)C1)C(=O)C(=O)NC2CCN(C(=O)C3=CC=CO3)C=4C=CC=CC24] | 56,94 ± 25,46 RUs | Negative | Negative | 0.94 °C | – | –
Cc1nnc(NC(=O)CNC(c2ccc(F)cc2)c2cnn(C)c2)s1 (stereo not shown) [Compound 88, CC1=NN=C(NC(=O)CNC(C=2C=NN(C)C2)C=3C=CC(F)=CC3)S1] | 4,11 ± 7,31 RUs | Negative | – | 0.54 °C | 2260 nM | –
CC(NC(=O)CC1(C)CCCO1)C1(O)CN(C(=O)c2nsnc2O)C1 (stereo not shown) [Compound 89, CC(NC(=O)CC1(C)CCCO1)C2(O)CN(C2)C(=O)C3=NSN=C3O] | -1,39 ± 0,54 RUs | Negative | – | 0.19 °C | 155 nM | –
